We go through three compounds from the kinase profiling compilation of Christmann-Franck et al. (2016).

The term residual activity denotes the signal under treatment as a percentage of the control signal.

STK17A (human), sequence (Q9UEE5 whole entry, looked up): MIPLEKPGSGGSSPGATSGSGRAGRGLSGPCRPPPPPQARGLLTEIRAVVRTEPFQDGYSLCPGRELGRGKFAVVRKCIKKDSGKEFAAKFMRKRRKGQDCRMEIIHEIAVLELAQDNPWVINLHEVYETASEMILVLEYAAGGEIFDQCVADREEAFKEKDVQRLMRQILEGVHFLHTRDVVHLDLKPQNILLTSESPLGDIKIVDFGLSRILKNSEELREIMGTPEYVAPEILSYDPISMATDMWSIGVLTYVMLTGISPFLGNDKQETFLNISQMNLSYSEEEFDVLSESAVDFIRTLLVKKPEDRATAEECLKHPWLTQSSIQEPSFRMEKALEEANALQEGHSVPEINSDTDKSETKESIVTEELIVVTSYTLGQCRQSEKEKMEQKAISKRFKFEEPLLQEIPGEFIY
ZAP70 (human), sequence (P43403 whole entry, looked up): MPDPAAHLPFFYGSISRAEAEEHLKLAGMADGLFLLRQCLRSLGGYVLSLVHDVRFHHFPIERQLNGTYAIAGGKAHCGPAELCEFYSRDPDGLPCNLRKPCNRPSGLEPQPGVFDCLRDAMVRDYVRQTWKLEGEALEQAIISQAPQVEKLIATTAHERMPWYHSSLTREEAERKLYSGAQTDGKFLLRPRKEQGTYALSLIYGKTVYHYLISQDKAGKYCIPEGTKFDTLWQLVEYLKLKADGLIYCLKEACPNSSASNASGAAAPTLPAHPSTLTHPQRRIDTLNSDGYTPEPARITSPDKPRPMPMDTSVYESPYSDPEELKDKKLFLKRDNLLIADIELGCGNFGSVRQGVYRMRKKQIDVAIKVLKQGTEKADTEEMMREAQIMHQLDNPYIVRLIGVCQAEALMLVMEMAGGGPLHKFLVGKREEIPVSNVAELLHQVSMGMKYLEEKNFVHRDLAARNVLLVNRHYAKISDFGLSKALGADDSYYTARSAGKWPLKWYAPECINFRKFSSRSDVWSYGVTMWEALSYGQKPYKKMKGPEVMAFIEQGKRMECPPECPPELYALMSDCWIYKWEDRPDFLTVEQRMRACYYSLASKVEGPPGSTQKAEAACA

The first experiment has as its target CDK5 CDK5R1 p25 (human) (UniProt Q00535+Q15078). Description: radiometric filter-binding kinase assay, Kinase HotSpot. Conditions: compound 0.5 µM; ATP 10 µM.
On to `O=C(Nc1cccc(Nc2cc(Nc3cccc(C(F)(F)F)c3)ncn2)c1)C1CC1`, for which the residual activity was determined as 99.5%.

As for `Cc1nc2cc3nc(-c4cccs4)cnc3cc2n1C`, the residual activity came to 99.3%.

For the compound `Oc1ccc(Nc2nc(-c3ccc(Cl)cc3)cs2)cc1`, the residual activity came out at 85.9%.

Another experiment deals with PASK (human) (UniProt Q96RG2). The description is as above. Conditions: compound 0.5 µM; ATP 10 µM.
Consider `O=C(Nc1cccc(Nc2cc(Nc3cccc(C(F)(F)F)c3)ncn2)c1)C1CC1`, for which the residual activity came to 98.3%.

`Cc1nc2cc3nc(-c4cccs4)cnc3cc2n1C`: the residual activity came out at 110%.

With `Oc1ccc(Nc2nc(-c3ccc(Cl)cc3)cs2)cc1`, the residual activity is 131%.

The target of the next experiment is TAOK1 (human) (UniProt Q7L7X3). The description is as above. Conditions: compound 0.5 µM; ATP 10 µM.
TAOK1 (human), sequence (Q7L7X3 whole entry, looked up): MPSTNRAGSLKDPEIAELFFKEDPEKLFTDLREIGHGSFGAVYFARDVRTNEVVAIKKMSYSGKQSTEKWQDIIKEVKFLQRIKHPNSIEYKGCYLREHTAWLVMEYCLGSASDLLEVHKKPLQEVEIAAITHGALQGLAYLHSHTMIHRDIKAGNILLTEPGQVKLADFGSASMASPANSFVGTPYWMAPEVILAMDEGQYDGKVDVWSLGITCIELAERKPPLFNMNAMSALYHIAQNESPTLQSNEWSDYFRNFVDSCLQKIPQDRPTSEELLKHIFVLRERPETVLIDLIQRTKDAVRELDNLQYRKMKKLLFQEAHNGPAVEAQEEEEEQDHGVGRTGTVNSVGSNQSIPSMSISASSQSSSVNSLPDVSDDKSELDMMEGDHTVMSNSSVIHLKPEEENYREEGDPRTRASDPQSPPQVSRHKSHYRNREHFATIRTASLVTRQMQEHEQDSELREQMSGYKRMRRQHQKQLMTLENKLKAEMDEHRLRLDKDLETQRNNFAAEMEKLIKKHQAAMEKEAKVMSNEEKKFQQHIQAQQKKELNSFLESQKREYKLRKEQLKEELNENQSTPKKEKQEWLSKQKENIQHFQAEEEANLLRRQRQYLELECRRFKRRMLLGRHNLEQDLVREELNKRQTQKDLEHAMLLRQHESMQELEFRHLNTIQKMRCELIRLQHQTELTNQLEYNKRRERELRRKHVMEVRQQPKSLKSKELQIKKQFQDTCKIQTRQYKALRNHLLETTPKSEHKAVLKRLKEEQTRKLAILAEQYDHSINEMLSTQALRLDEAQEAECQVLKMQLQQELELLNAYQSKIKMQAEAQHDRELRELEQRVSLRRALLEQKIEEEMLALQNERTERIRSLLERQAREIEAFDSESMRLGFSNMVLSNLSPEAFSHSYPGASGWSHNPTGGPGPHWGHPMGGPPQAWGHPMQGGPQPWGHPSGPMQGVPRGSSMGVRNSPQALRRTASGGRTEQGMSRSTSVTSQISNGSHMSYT
`O=C(Nc1cccc(Nc2cc(Nc3cccc(C(F)(F)F)c3)ncn2)c1)C1CC1`: the residual activity amounted to 100%.

For the compound `Cc1nc2cc3nc(-c4cccs4)cnc3cc2n1C`, the residual activity stood at 110%.

Consider `Oc1ccc(Nc2nc(-c3ccc(Cl)cc3)cs2)cc1`, for which the residual activity is 97.1%.

In a further experiment the target is MAP4K4 (human) (UniProt O95819). Described as above. Conditions: compound 0.5 µM; ATP 10 µM.
Consider `O=C(Nc1cccc(Nc2cc(Nc3cccc(C(F)(F)F)c3)ncn2)c1)C1CC1`, for which the residual activity is 102%.

As to `Cc1nc2cc3nc(-c4cccs4)cnc3cc2n1C`, the residual activity came out at 84.5%.

Consider `Oc1ccc(Nc2nc(-c3ccc(Cl)cc3)cs2)cc1`, for which the residual activity is 88.9%.

In a further experiment the target is STK16 (human) (UniProt O75716). The description is as above. The following applies: compound 0.5 µM; ATP 10 µM.
STK16 (human), sequence (O75716 whole entry, looked up): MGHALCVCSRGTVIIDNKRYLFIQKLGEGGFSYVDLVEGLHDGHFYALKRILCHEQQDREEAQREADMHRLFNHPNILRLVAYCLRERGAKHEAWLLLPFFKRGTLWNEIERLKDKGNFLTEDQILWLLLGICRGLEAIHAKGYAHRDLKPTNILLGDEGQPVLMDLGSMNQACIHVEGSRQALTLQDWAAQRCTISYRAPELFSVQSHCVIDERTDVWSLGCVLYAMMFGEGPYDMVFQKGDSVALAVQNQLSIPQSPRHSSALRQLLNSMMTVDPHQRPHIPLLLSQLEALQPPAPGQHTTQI
For `O=C(Nc1cccc(Nc2cc(Nc3cccc(C(F)(F)F)c3)ncn2)c1)C1CC1`, the residual activity was determined as 107%.

For `Cc1nc2cc3nc(-c4cccs4)cnc3cc2n1C`, the residual activity was determined as 95.2%.

On to `Oc1ccc(Nc2nc(-c3ccc(Cl)cc3)cs2)cc1`, for which the residual activity turned out to be 106%.

In a further experiment the target is DCLK2 (human) (UniProt Q8N568). The description is as above. The following applies: compound 0.5 µM; ATP 10 µM.
Take `O=C(Nc1cccc(Nc2cc(Nc3cccc(C(F)(F)F)c3)ncn2)c1)C1CC1`: the residual activity is 101%.

Take `Cc1nc2cc3nc(-c4cccs4)cnc3cc2n1C`: the residual activity worked out at 104%.

Regarding `Oc1ccc(Nc2nc(-c3ccc(Cl)cc3)cs2)cc1`, the residual activity was 98.5%.

The next experiment addresses PRKCB1 (human) (UniProt P05771). The experiment is described as above. The following applies: compound 0.5 µM; ATP 10 µM.
Regarding `O=C(Nc1cccc(Nc2cc(Nc3cccc(C(F)(F)F)c3)ncn2)c1)C1CC1`, the residual activity worked out at 93.2%.

For the compound `Cc1nc2cc3nc(-c4cccs4)cnc3cc2n1C`, the residual activity worked out at 107%.

On to `Oc1ccc(Nc2nc(-c3ccc(Cl)cc3)cs2)cc1`, for which the residual activity was found to be 101%.

The target in a further experiment is CAMK2B (human) (UniProt Q13554). Described as above. Conditions: compound 0.5 µM; ATP 10 µM.
With `O=C(Nc1cccc(Nc2cc(Nc3cccc(C(F)(F)F)c3)ncn2)c1)C1CC1`, the residual activity was 105%.

Take `Cc1nc2cc3nc(-c4cccs4)cnc3cc2n1C`: the residual activity turned out to be 101%.

Regarding `Oc1ccc(Nc2nc(-c3ccc(Cl)cc3)cs2)cc1`, the residual activity amounted to 85.8%.

The target in another experiment is ULK1 (human) (UniProt O75385). Described as above. The following applies: compound 0.5 µM; ATP 10 µM.
On to `O=C(Nc1cccc(Nc2cc(Nc3cccc(C(F)(F)F)c3)ncn2)c1)C1CC1`, for which the residual activity was determined as 100%.

Regarding `Cc1nc2cc3nc(-c4cccs4)cnc3cc2n1C`, the residual activity was determined as 84.6%.

Take `Oc1ccc(Nc2nc(-c3ccc(Cl)cc3)cs2)cc1`: the residual activity came out at 84.2%.

The next experiment has as its target CHUK (human) (UniProt O15111). The experiment is described as above. Conditions: compound 0.5 µM; ATP 10 µM.
In the case of `O=C(Nc1cccc(Nc2cc(Nc3cccc(C(F)(F)F)c3)ncn2)c1)C1CC1`, the residual activity came out at 95.6%.

With `Cc1nc2cc3nc(-c4cccs4)cnc3cc2n1C`, the residual activity was determined as 96.2%.

`Oc1ccc(Nc2nc(-c3ccc(Cl)cc3)cs2)cc1`: the residual activity is 104%.

Another experiment addresses PTK2B (human) (UniProt Q14289). The description is as above. Conditions: compound 0.5 µM; ATP 10 µM.
For the compound `O=C(Nc1cccc(Nc2cc(Nc3cccc(C(F)(F)F)c3)ncn2)c1)C1CC1`, the residual activity is 89.6%.

For `Cc1nc2cc3nc(-c4cccs4)cnc3cc2n1C`, the residual activity is 96.4%.

With `Oc1ccc(Nc2nc(-c3ccc(Cl)cc3)cs2)cc1`, the residual activity turned out to be 100%.

Another experiment addresses DAPK3 (human) (UniProt O43293). Described as above. Conditions: compound 0.5 µM; ATP 10 µM.
Consider `O=C(Nc1cccc(Nc2cc(Nc3cccc(C(F)(F)F)c3)ncn2)c1)C1CC1`, for which the residual activity was determined as 99.8%.

Take `Cc1nc2cc3nc(-c4cccs4)cnc3cc2n1C`: the residual activity is 102%.

On to `Oc1ccc(Nc2nc(-c3ccc(Cl)cc3)cs2)cc1`, for which the residual activity worked out at 103%.

Another experiment concerns the target ROS1 (human) (UniProt P08922). The description is as above. Conditions: compound 0.5 µM; ATP 10 µM.
As for `O=C(Nc1cccc(Nc2cc(Nc3cccc(C(F)(F)F)c3)ncn2)c1)C1CC1`, the residual activity stood at 93.5%.

Turning to `Cc1nc2cc3nc(-c4cccs4)cnc3cc2n1C`, the residual activity is 97.9%.

Regarding `Oc1ccc(Nc2nc(-c3ccc(Cl)cc3)cs2)cc1`, the residual activity came out at 96.9%.

In another experiment the target is KDR (human) (UniProt P35968). The experiment is described as above. The following applies: compound 0.5 µM; ATP 10 µM.
KDR (human), sequence (P35968 whole entry, looked up): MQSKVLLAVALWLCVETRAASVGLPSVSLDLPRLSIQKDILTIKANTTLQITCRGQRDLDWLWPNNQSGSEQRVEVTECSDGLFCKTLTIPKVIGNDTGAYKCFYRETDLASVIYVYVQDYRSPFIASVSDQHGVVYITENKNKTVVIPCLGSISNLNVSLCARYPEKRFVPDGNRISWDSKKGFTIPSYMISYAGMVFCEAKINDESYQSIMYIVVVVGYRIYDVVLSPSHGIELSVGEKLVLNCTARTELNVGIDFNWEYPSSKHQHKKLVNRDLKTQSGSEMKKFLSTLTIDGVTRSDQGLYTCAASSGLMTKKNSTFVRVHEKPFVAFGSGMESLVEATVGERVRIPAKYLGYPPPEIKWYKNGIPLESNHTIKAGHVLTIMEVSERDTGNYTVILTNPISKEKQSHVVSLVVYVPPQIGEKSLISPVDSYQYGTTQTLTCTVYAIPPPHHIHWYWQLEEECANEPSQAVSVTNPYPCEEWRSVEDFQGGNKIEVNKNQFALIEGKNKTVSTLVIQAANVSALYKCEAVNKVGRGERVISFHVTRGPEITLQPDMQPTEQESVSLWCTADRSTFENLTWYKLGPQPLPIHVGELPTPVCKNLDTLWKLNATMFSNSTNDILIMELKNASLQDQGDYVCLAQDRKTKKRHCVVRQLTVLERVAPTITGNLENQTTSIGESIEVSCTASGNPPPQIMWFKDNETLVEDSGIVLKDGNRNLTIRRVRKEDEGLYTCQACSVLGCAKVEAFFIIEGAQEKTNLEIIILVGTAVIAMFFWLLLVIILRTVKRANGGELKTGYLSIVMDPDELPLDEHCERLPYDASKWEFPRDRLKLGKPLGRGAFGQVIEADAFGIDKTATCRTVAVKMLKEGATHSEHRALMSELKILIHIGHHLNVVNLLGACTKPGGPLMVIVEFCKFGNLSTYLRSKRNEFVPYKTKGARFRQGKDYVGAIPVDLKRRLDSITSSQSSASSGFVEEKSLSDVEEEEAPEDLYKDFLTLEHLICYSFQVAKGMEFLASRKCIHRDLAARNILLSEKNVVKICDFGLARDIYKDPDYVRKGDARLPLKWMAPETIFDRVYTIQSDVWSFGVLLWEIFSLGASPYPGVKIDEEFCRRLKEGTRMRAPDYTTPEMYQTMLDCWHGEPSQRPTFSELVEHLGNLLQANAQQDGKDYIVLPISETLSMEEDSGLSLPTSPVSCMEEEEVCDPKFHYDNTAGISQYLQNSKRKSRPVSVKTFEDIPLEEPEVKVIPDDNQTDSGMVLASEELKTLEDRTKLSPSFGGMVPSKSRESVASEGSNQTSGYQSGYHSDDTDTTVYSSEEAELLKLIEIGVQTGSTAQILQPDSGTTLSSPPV
With `O=C(Nc1cccc(Nc2cc(Nc3cccc(C(F)(F)F)c3)ncn2)c1)C1CC1`, the residual activity is 101%.

On to `Cc1nc2cc3nc(-c4cccs4)cnc3cc2n1C`, for which the residual activity is 77.4%.

For `Oc1ccc(Nc2nc(-c3ccc(Cl)cc3)cs2)cc1`, the residual activity is 101%.

Another experiment deals with TBK1 (human) (UniProt Q9UHD2). The description is as above. Conditions: compound 0.5 µM; ATP 10 µM.
As to `O=C(Nc1cccc(Nc2cc(Nc3cccc(C(F)(F)F)c3)ncn2)c1)C1CC1`, the residual activity came to 99%.

Consider `Cc1nc2cc3nc(-c4cccs4)cnc3cc2n1C`, for which the residual activity is 93%.

In the case of `Oc1ccc(Nc2nc(-c3ccc(Cl)cc3)cs2)cc1`, the residual activity stood at 95.2%.

Another experiment addresses INSR (human) (UniProt P06213). The description is as above. The following applies: compound 0.5 µM; ATP 10 µM.
In the case of `O=C(Nc1cccc(Nc2cc(Nc3cccc(C(F)(F)F)c3)ncn2)c1)C1CC1`, the residual activity stood at 103%.

For `Cc1nc2cc3nc(-c4cccs4)cnc3cc2n1C`, the residual activity was determined as 99.9%.

In the case of `Oc1ccc(Nc2nc(-c3ccc(Cl)cc3)cs2)cc1`, the residual activity came to 88.9%.

A further experiment has as its target TTK (human) (UniProt P33981). The experiment is described as above. The following applies: compound 0.5 µM; ATP 10 µM.
As to `O=C(Nc1cccc(Nc2cc(Nc3cccc(C(F)(F)F)c3)ncn2)c1)C1CC1`, the residual activity is 98.7%.

For `Cc1nc2cc3nc(-c4cccs4)cnc3cc2n1C`, the residual activity stood at 92.6%.

For `Oc1ccc(Nc2nc(-c3ccc(Cl)cc3)cs2)cc1`, the residual activity amounted to 87.6%.

A further experiment addresses CDK9 CCNK (human) (UniProt O75909+P50750). Described as above. Conditions: compound 0.5 µM; ATP 10 µM.
With `O=C(Nc1cccc(Nc2cc(Nc3cccc(C(F)(F)F)c3)ncn2)c1)C1CC1`, the residual activity is 102%.

On to `Cc1nc2cc3nc(-c4cccs4)cnc3cc2n1C`, for which the residual activity stood at 110%.

For the compound `Oc1ccc(Nc2nc(-c3ccc(Cl)cc3)cs2)cc1`, the residual activity is 102%.

A further experiment has as its target ZAP70 (human) (UniProt P43403). The description is as above. Conditions: compound 0.5 µM; ATP 10 µM.
On to `O=C(Nc1cccc(Nc2cc(Nc3cccc(C(F)(F)F)c3)ncn2)c1)C1CC1`, for which the residual activity stood at 93%.

In the case of `Cc1nc2cc3nc(-c4cccs4)cnc3cc2n1C`, the residual activity worked out at 93.3%.

Regarding `Oc1ccc(Nc2nc(-c3ccc(Cl)cc3)cs2)cc1`, the residual activity came to 94.7%.

A further experiment addresses STK17A (human) (UniProt Q9UEE5). Described as above. The following applies: compound 0.5 µM; ATP 10 µM.
As to `O=C(Nc1cccc(Nc2cc(Nc3cccc(C(F)(F)F)c3)ncn2)c1)C1CC1`, the residual activity was determined as 99.2%.

As to `Cc1nc2cc3nc(-c4cccs4)cnc3cc2n1C`, the residual activity turned out to be 80.5%.

Regarding `Oc1ccc(Nc2nc(-c3ccc(Cl)cc3)cs2)cc1`, the residual activity was 98.7%.

In the next experiment the target is PTK2 (human) (UniProt Q05397). The experiment is described as above. Conditions: compound 0.5 µM; ATP 10 µM.
PTK2 (human), sequence (Q05397 whole entry, looked up): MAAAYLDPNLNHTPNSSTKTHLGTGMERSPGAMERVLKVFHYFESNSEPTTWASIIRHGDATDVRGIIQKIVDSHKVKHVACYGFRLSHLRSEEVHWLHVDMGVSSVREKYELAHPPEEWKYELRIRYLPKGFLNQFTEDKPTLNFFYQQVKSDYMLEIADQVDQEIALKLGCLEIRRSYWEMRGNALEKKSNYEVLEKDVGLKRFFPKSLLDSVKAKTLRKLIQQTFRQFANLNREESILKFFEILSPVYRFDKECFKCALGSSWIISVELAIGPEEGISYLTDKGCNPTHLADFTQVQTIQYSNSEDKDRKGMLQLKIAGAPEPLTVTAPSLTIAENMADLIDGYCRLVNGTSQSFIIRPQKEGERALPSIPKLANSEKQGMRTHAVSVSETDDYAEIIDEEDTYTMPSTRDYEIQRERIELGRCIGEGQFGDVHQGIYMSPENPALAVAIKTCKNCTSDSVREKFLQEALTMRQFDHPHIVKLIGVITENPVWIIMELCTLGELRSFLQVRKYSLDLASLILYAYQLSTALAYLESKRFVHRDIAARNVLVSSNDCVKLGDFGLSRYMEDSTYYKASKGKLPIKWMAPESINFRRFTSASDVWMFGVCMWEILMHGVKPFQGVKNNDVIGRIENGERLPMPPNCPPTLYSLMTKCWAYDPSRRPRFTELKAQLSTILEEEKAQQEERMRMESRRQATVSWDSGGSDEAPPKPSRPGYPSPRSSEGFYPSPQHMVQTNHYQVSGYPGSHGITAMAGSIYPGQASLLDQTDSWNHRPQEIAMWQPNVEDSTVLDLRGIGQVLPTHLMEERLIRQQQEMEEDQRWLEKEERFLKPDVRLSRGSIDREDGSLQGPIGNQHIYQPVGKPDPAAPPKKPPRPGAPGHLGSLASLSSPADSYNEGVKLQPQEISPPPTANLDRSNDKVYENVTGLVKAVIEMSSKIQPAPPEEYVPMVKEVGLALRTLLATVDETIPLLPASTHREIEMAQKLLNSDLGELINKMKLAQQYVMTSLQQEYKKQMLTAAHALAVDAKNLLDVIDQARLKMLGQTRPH
Consider `O=C(Nc1cccc(Nc2cc(Nc3cccc(C(F)(F)F)c3)ncn2)c1)C1CC1`, for which the residual activity amounted to 105%.

`Cc1nc2cc3nc(-c4cccs4)cnc3cc2n1C`: the residual activity was found to be 117%.

As for `Oc1ccc(Nc2nc(-c3ccc(Cl)cc3)cs2)cc1`, the residual activity came to 99.4%.
